According to patent US20260265329A1, “POLYPEPTIDE AND DERIVATIVE THEREOF, COMPOSITION, AND USE THEREOF” (HANGZHOU SCIWIND BIOSCIENCES CO., LTD., priority 2023, published 2026):
Starred links: 1 amine or outer side, 2 acyl side, 3 side chain; linkers in the order of their positions; H or OH if unused. Non-standard residues stand in square brackets, D forms with d. Residues, ends and D or L forms follow the SMILES beside them. ξ: configuration not given here. *: point of attachment. C20 diacid = O=C(O)CCCCCCCCCCCCCCCCCCC(=O)*; γGlu = O=C(O)[C@H](CCC(=O)[*:2])N[*:1]; Hyp = O=C(O)[C@@H]1C[C@@H](O)CN1; ξαMeN = CC(N)(CC(N)=O)C(=O)O

Experiments:
[1] = molecular target: T1, human amylin receptors (Homo sapiens, UniProt O60896+P30988); test: Luciferase assay in stably transfected amylin receptor/CRE-luc CHO cell line; format: cell-based; conditions: for Relative activity: EC50 ratio of Cagrilintide to the compound, Cagrilintide 100%; for EC50: amylin receptor/CRE-luc CHO cells, 24 hours incubation, luminescence
T1 construct: host or cells: CHO-K1/Ga15/AMY3 cells, further stably transfected with a CRE-luciferase plasmid
T1 sequence (P30988 25-474): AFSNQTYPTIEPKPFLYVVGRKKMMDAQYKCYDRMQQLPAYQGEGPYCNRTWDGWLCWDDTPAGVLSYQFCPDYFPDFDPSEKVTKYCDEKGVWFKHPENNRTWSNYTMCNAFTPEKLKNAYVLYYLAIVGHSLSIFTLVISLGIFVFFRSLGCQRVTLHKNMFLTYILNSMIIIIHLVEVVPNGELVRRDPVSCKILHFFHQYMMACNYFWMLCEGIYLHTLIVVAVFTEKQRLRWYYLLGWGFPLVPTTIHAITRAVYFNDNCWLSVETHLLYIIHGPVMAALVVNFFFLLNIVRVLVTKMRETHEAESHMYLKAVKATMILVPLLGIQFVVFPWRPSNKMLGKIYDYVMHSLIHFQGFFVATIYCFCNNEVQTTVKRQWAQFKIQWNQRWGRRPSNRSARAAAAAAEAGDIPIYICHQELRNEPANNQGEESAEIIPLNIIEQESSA
T1 sequence (O60896 24-148 partner): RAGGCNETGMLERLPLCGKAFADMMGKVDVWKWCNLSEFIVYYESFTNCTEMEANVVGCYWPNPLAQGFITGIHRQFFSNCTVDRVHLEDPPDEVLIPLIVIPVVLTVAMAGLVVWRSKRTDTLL

[2] = Heat accelerated stability assay, 40° C., detection on 7 d and 28 d; format: physicochemical; conditions: for Purity from the reversed phase chromatography-214 nm, 0 d / Purity from the reversed phase chromatography-214 nm, 7 d / Purity from the reversed phase chromatography-214 nm, 28 d: 1 mg/mL, pH about 7.4, 40° C.; for Change (7 d − 0 d): purity on 7 d − purity on 0 d; for Change (7 d − 0 d) / Change (28 d − 0 d): 40° C., pH about 7.4; for Change (28 d − 0 d): purity on 28 d − purity on 0 d
Method: The derivatives (1 mg/mL) were mixed with sodium dihydrogen phosphate (1.42 mg/mL) and dissolved in ultrapure water. After adjusting pH to about 7.4 with hydrochloric acid/sodium hydroxide, the solution was filtered into a sterilized vial in a clean bench using a 0.22 μm sterile filter. The vial was then capped and placed into the stability test chamber at 40° C. Detections were made on Days 7 (7d) and 28 (28d), and during the assay, changes in the characteristics and properties of the polypeptides were observed and recorded. The sample was then centrifuged for 3 min at 10000 rpm at 4° C., and the supernatant was transferred to a liquid phase sample vial for detecting the concentration and purity of the polypeptides using liquid phase chromatography described as below.
Conditions of the reversed phase chromatography Flow rate: 1.0 mL/min; Autosampler temperature: 15° C.; Column temperature: 25° C.; Detection wavelength: 214 nm; Mobile phase A: 100% H2O+0.05% TFA; Mobile phase B: 100% ACN; and Gradient of elution listed in Table 4: […]

| Compound | Relative activity [1] | EC50 [1] | Purity from the reversed phase chromatography-214 nm, 0 d [2] | Purity from the reversed phase chromatography-214 nm, 7 d [2] | Purity from the reversed phase chromatography-214 nm, 28 d [2] | Change (7 d − 0 d) [2] | Change (28 d − 0 d) [2] | Purity from the reversed phase chromatography-214 nm, 0 d ([2]; in % (unit assumed)) | Purity from the reversed phase chromatography-214 nm, 7 d ([2]; in % (unit assumed)) | Change (28 d − 0 d) ([2]; in % (unit assumed)) |
| --- | --- | --- | --- | --- | --- | --- | --- | --- | --- | --- |
| CC[C@H](C)[C@H](NC(=O)[C@@H]1CCCN1C(=O)[C@H](CCCCN)NC(=O)[C@H](CC(C)C)NC(=O)[C@H](CC(N)=O)NC(=O)[C@H](CC(N)=O)NC(=O)[C@H](CO)NC(=O)[C@H](CO)NC(=O)[C@H](Cc1c[nH]cn1)NC(=O)[C@H](CCCNC(=N)N)NC(=O)[C@H](CC(C)C)NC(=O)[C@H](Cc1ccccc1)NC(=O)[C@H](CC(=O)O)NC(=O)[C@H](C)NC(=O)[C@H](CC(C)C)NC(=O)[C@H](CCCNC(=N)N)NC(=O)CNC(=O)[C@H](CC(C)C)NC(=O)[C@@H](NC(=O)[C@H](C)NC(=O)[C@@H](NC(=O)[C@H](CO)NC(=O)[C@H](CC(C)C)NC(=O)[C@H](CCC(N)=O)NC(=O)[C@H](CO)NC(=O)[C@H](C)NC(=O)CC[C@H](NC(=O)CCCCCCCCCCCCCCCCCCC(=O)O)C(=O)O)[C@@H](C)O)C(C)C)C(=O)N[C@@H](CC(C)C)C(=O)N1CCC[C@H]1C(=O)N1CCC[C@H]1C(=O)N[C@H](C(=O)N[C@@H](CC(N)=O)C(=O)N[C@H](C(=O)NCC(=O)N[C@@H](CO)C(=O)N[C@@H](CC(N)=O)C(=O)N[C@H](C(=O)N1C[C@H](O)C[C@H]1C(N)=O)[C@@H](C)O)C(C)C)[C@@H](C)O [M2] ({C20 diacid-γGlu}-ASQLSTAVLGRLADFLRHSSNNLKPILPPTNVGSNT[Hyp]-NH2) | 68% | 0.038 nM | 85.15 | 85.16 | 85.44 | 0.01 | 0.29 |  |  |  |
| CC[C@H](C)[C@H](NC(=O)[C@H](CC(=O)O)NC(=O)[C@H](CCCNC(=N)N)NC(=O)[C@H](CC(=O)O)NC(=O)[C@H](CCCNC(=N)N)NC(=O)[C@H](CC(=O)O)NC(=O)[C@@H](NC(=O)[C@H](Cc1ccccc1)NC(=O)[C@H](Cc1c[nH]cn1)NC(=O)[C@H](CCCNC(=N)N)NC(=O)[C@H](CC(C)C)NC(=O)[C@H](Cc1ccccc1)NC(=O)[C@H](CC(=O)O)NC(=O)[C@H](C)NC(=O)[C@H](CC(C)C)NC(=O)[C@H](CCCNC(=N)N)NC(=O)CNC(=O)[C@H](CC(C)C)NC(=O)[C@@H](NC(=O)[C@H](C)NC(=O)[C@@H](NC(=O)[C@H](CO)NC(=O)[C@H](CC(C)C)NC(=O)[C@H](CCC(N)=O)NC(=O)[C@H](CO)NC(=O)[C@H](C)NC(=O)CC[C@H](NC(=O)CCCCCCCCCCCCCCCCCCC(=O)O)C(=O)O)[C@@H](C)O)C(C)C)[C@@H](C)O)C(=O)N[C@@H](CC(C)C)C(=O)N1CCC[C@H]1C(=O)N1CCC[C@H]1C(=O)N[C@H](C(=O)N[C@@H](CC(N)=O)C(=O)N[C@H](C(=O)NCC(=O)N[C@@H](CO)C(=O)N[C@@H](CC(N)=O)C(=O)N[C@H](C(=O)N1CCC[C@H]1C(N)=O)[C@@H](C)O)C(C)C)[C@@H](C)O [M4] ({C20 diacid-γGlu}-ASQLSTAVLGRLADFLRHFTDRDRDILPPTNVGSNTP-NH2) | 32% | 0.081 nM | 95 | 94.22 | 92.25 | −0.78 | −2.75 |  |  |  |
| CC[C@H](C)[C@H](NC(=O)[C@@H]1CCCN1C(=O)[C@H](CCCCN)NC(=O)[C@H](CC(C)C)NC(=O)[C@H](CC(N)=O)NC(=O)[C@H](CC(N)=O)NC(=O)[C@H](CO)NC(=O)[C@H](CO)NC(=O)[C@H](Cc1c[nH]cn1)NC(=O)[C@H](CCCNC(=N)N)NC(=O)[C@H](CC(C)C)NC(=O)[C@H](Cc1ccccc1)NC(=O)[C@H](CC(=O)O)NC(=O)[C@H](C)NC(=O)[C@H](CC(C)C)NC(=O)[C@H](CCCNC(=N)N)NC(=O)[C@H](CCC(N)=O)NC(=O)[C@@H](NC(=O)[C@H](C)NC(=O)[C@H](C)NC(=O)[C@@H](NC(=O)[C@H](CO)NC(=O)[C@H](CC(C)C)NC(=O)[C@H](CCC(N)=O)NC(=O)[C@H](CO)NC(=O)[C@H](C)NC(=O)CC[C@H](NC(=O)CCCCCCCCCCCCCCCCCCC(=O)O)C(=O)O)[C@@H](C)O)[C@@H](C)O)C(=O)N[C@@H](CC(C)C)C(=O)N1CCC[C@H]1C(=O)N1CCC[C@H]1C(=O)N[C@H](C(=O)N[C@@H](CC(N)=O)C(=O)N[C@H](C(=O)NCC(=O)N[C@@H](CO)C(=O)N[C@@H](CC(N)=O)C(=O)N[C@H](C(=O)N1C[C@H](O)C[C@H]1C(N)=O)[C@@H](C)O)C(C)C)[C@@H](C)O [M5] ({C20 diacid-γGlu}-ASQLSTAATQRLADFLRHSSNNLKPILPPTNVGSNT[Hyp]-NH2) | 84% | 0.031 nM | 92.36 | 91.35 | 91.34 | −1.01 | −1.02 |  |  |  |
| CC[C@H](C)[C@H](NC(=O)[C@@H]1CCCN1C(=O)[C@H](CCCCN)NC(=O)[C@H](CC(C)C)NC(=O)C(C)(CC(N)=O)NC(=O)[C@H](CC(N)=O)NC(=O)[C@H](CO)NC(=O)[C@H](CO)NC(=O)[C@H](Cc1c[nH]cn1)NC(=O)[C@H](CCCNC(=N)N)NC(=O)[C@H](CC(C)C)NC(=O)[C@H](Cc1ccccc1)NC(=O)[C@H](CC(=O)O)NC(=O)[C@H](C)NC(=O)[C@H](CC(C)C)NC(=O)[C@H](CCCNC(=N)N)NC(=O)[C@H](CCC(N)=O)NC(=O)[C@@H](NC(=O)[C@H](C)NC(=O)[C@H](C)NC(=O)[C@@H](NC(=O)[C@H](CO)NC(=O)[C@H](CC(C)C)NC(=O)[C@H](CCC(N)=O)NC(=O)[C@H](CO)NC(=O)[C@H](C)NC(=O)CC[C@H](NC(=O)CCCCCCCCCCCCCCCCCCC(=O)O)C(=O)O)[C@@H](C)O)[C@@H](C)O)C(=O)N[C@@H](CC(C)C)C(=O)N1CCC[C@H]1C(=O)N1CCC[C@H]1C(=O)N[C@H](C(=O)N[C@@H](CC(N)=O)C(=O)N[C@H](C(=O)NCC(=O)N[C@@H](CO)C(=O)N[C@@H](CC(N)=O)C(=O)N[C@H](C(=O)N1C[C@H](O)C[C@H]1C(N)=O)[C@@H](C)O)C(C)C)[C@@H](C)O (stereo partly drawn) [M55] ({C20 diacid-γGlu}-ASQLSTAATQRLADFLRHSSN[ξαMeN]LKPILPPTNVGSNT[Hyp]-NH2) | 233% |  |  |  |  |  |  |  |  |  |
| M10: ASQLSTAVLQRLADFLRHFTDRDRDILPPTNVGSNTP-NH2 (SEQ ID No. 10), N-terminal side chain C20 diacid + γGlu ({C20 diacid-γGlu}-ASQLSTAVLQRLADFLRHFTDRDRDILPPTNVGSNTP-NH2; SMILES CC[C@H](C)[C@H](NC(=O)[C@H](CC(=O)O)NC(=O)[C@H](CCCNC(=N)N)NC(=O)[C@H](CC(=O)O)NC(=O)[C@H](CCCNC(=N)N)NC(=O)[C@H](CC(=O)O)NC(=O)[C@@H](NC(=O)[C@H](Cc1ccccc1)NC(=O)[C@H](Cc1c[nH]cn1)NC(=O)[C@H](CCCNC(=N)N)NC(=O)[C@H](CC(C)C)NC(=O)[C@H](Cc1ccccc1)NC(=O)[C@H](CC(=O)O)NC(=O)[C@H](C)NC(=O)[C@H](CC(C)C)NC(=O)[C@H](CCCNC(=N)N)NC(=O)[C@H](CCC(N)=O)NC(=O)[C@H](CC(C)C)NC(=O)[C@@H](NC(=O)[C@H](C)NC(=O)[C@@H](NC(=O)[C@H](CO)NC(=O)[C@H](CC(C)C)NC(=O)[C@H](CCC(N)=O)NC(=O)[C@H](CO)NC(=O)[C@H](C)NC(=O)CC[C@H](NC(=O)CCCCCCCCCCCCCCCCCCC(=O)O)C(=O)O)[C@@H](C)O)C(C)C)[C@@H](C)O)C(=O)N[C@@H](CC(C)C)C(=O)N1CCC[C@H]1C(=O)N1CCC[C@H]1C(=O)N[C@H](C(=O)N[C@@H](CC(N)=O)C(=O)N[C@H](C(=O)NCC(=O)N[C@@H](CO)C(=O)N[C@@H](CC(N)=O)C(=O)N[C@H](C(=O)N1CCC[C@H]1C(N)=O)[C@@H](C)O)C(C)C)[C@@H](C)O) |  |  |  |  | 93.8% | 0.16% |  | 94.73 | 94.89 | −0.93 |
